Data on 3 compounds can be found in ChEMBL document CHEMBL4602704, “Discovery and Optimization of Glucose Uptake Inhibitors” (J Med Chem, 2020).

A short description of data set [1]: in vivo. Conditions: CD-1, mouse, brain, po, 100 mg/kg.
The nature of data set [2]: in vitro. The settings on record: human, Caco-2.
The nature of data set [3]: in vitro. Conditions: human, Caco-2. The source holds these as a separate data set.
Data set [4] is described as follows: in vivo. The settings on record: rat, po, 30 mg/kg.
Data set [5] is described as follows: in vivo. The settings on record: mouse, po, 30 mg/kg.
Data set [6] can be described thus: in vivo. The settings on record: rat, iv, 10 mg/kg.
Data set [7] in a line: in vivo. Conditions: rat, po, 30 mg/kg. The source holds these as a separate data set.
Data set [8] is described as follows: in vivo. The settings on record: dog, po, 10 mg/kg.
A short description of data set [9]: in vitro. The settings on record: dog, liver microsomes.
A short description of data set [10]: in vivo. The settings on record: rat, po, 30 mg/kg. The source holds these as a separate data set.
The nature of data set [11]: in vivo. Conditions: mouse, po, 30 mg/kg. This is another data set of the same source.
The nature of data set [12]: in vivo. The settings on record: mouse, iv, 10 mg/kg.
A short description of data set [13]: in vitro. Conditions: mouse, plasma.
A short description of data set [14]: in vivo. The settings on record: rat, iv, 10 mg/kg. This is another data set of the same source.
Data set [15] in a line: in vivo. Conditions: dog, po, 10 mg/kg. The source holds these as a separate data set.
Data set [16] in a line: physchem. The settings on record: phosphate buffered saline, pH 4.5.
Data set [17] in a line: in vivo. The settings on record: mouse, po, 30 mg/kg. The source holds these as a separate data set.
Data set [18] can be described thus: in vitro. The settings on record: human, liver microsomes. In general terms: Liver microsomes are vesicles of endoplasmic reticulum, rich in cytochrome P450 enzymes.
A short description of data set [19]: in vitro. The settings on record: mouse, liver microsomes.
Data set [20] in a line: in vivo. The settings on record: mouse, iv, 10 mg/kg. This is another data set of the same source.
A short description of data set [21]: in vivo. Conditions: rat.
Data set [22] is described as follows: in vitro. The settings on record: rat, liver microsomes.
Data set [23] can be described thus: physchem. The settings on record: phosphate buffered saline, pH 6.8.
Data set [24] can be described thus: in vivo. Conditions: mouse, brain and plasma, po, 30 mg/kg.
Data set [25] is described as follows: physchem. Conditions: phosphate buffered saline, pH 2.
Data set [26] is described as follows: in vivo. The settings on record: mouse.
Data set [27] can be described thus: Apparent permeability in human Caco2 cells. In kind it is ADME, cell-based. Conditions: Caco-2. On the technique in general: Caco-2 monolayers are a common model of the intestinal barrier.

Converted amounts (≈) assume the structure as drawn.

The term Papp A→B denotes how fast a substance crosses the layer from the apical side. Lower therefore signals poor permeation. Usually Papp B→A stands for how fast a substance crosses the layer from the basolateral side. A word on the Cmax: it is the maximum level reached in the sampled fluid or tissue. The term bioavailability denotes the share of a dose that reaches the circulation, judged against a reference dose that is usually intravenous. Low readings indicate poor availability, high ones good availability. Broadly, the clearance is the rate of elimination divided by the concentration. By AUC is commonly meant concentration integrated over time. Read a low AUC as less exposure. As usually defined, the half-life is the time in which the quantity being followed falls by half. One may read the amount remaining as the share of the starting amount still present when the sample was taken. A lower amount remaining goes with a greater loss. The term Vd denotes the apparent volume that relates the amount in the body to the concentration in plasma or blood. Read a high Vd as wide distribution into tissue. As a reminder, the solubility is the dissolved amount per volume that the medium holds. As a reminder, the Papp is a coefficient for how fast a substance crosses the barrier.

On to `CC(C)(C)NC(=O)COc1cccc(-c2nc3c(c(Nc4ccc(-c5cn[nH]c5)cc4)n2)CN(C2CCC2)CC3)c1`, for which the Kp at 1 h in “in vivo [1]” turned out to be 0.1. This compound also yielded a Papp A→B at 5 µM in “in vitro [2]” of 4.58 ×10⁻⁶ cm/s. In “in vitro [3]”, this compound returned a Papp B→A at 5 µM of 6.09 ×10⁻⁶ cm/s.
Take `CC1(NC(=O)COc2cccc(-c3nc4c(c(Nc5ccc(-c6cn[nH]c6)cc5)n3)CN(C3CCC3)CC4)c2)CC1`: in the data set “in vivo [1]”, the Kp at 1 h amounted to 0.05. The Cmax in the data set “in vivo [4]” is 1680 ng/mL; in “in vivo [11]”, 2520 ng/mL. In addition, the bioavailability came out at 45.4% in the data set “in vivo [5]”, 29% in the data set “in vivo [8]”, 49.4% in the data set “in vivo [10]” and 19% in the data set “in vivo [15]”. Further, the clearance in “in vivo [6]” worked out at 37 mL/min/kg; in the data set “in vivo [12]” it was 40 mL/min/kg. The AUC in the data set “in vivo [7]” was 6810 ng·h/mL; in “in vivo [17]” it was 5890 ng·h/mL. Also, the half-life is 0.967 h in the data set “in vitro [9]”, 1.93 h in the data set “in vitro [18]”, 2.59 h in the data set “in vivo [21]” and 0.785 h in the data set “in vivo [26]”. For the same compound, the amount remaining at 18 h in the data set “in vitro [13]” is above 95%. The Vd in the data set “in vivo [14]” turned out to be 4.51 L/kg; in the data set “in vivo [20]” it was 1.7 L/kg. The Papp A→B at 5 µM in “in vitro [2]” stood at 11.2 ×10⁻⁶ cm/s. The compound also showed a Papp B→A at 5 µM in “in vitro [3]” of 4.33 ×10⁻⁶ cm/s. The results for the solubility in “physchem [16]”, in “physchem [23]” and in the data set “physchem [25]” were 256 µM (≈ 141 µg/mL), 1.4 µM (≈ 0.77 µg/mL) and 291 µM (≈ 160 µg/mL), respectively. Besides, the half-life at 2 µM was determined as 1.17 h in “in vitro [19]” and 1.05 h in “in vitro [22]”. Besides, the Kp at 2 h in “in vivo [24]” was determined as 0.05.
In the case of `CCOc1ccc2nc(-c3cccc(OCC(=O)NC(C)C)c3)nc(Nc3ccc(-c4cn[nH]c4)cc3)c2c1`, the Papp in data set [27] worked out at 2 ×10⁻⁶ cm/s. Moreover, the solubility was 0.01 µM (≈ 0.00523 µg/mL) in the data set “physchem [16]”, 0.03 µM (≈ 0.0157 µg/mL) in “physchem [23]” and 3.36 µM (≈ 1.76 µg/mL) in “physchem [25]”.
